The text below walks through data of patent US4780464A, “(1,2,4)triazolo(4,3-a)quinoxaline-4-amines” (Warner-Lambert Company, priority 1986, dated 1988).

Assay [1] has as its target T1, adenosine A1 receptor (Rattus norvegicus, UniProt P25099).
T1 construct: Whole brain minus cerebellum and brainstem from male Long-Evans rats (150-200 g) is homogenized; from tissue; host or cells: rat whole brain minus cerebellum and brainstem, membranes
T1 sequence (P25099 1-326): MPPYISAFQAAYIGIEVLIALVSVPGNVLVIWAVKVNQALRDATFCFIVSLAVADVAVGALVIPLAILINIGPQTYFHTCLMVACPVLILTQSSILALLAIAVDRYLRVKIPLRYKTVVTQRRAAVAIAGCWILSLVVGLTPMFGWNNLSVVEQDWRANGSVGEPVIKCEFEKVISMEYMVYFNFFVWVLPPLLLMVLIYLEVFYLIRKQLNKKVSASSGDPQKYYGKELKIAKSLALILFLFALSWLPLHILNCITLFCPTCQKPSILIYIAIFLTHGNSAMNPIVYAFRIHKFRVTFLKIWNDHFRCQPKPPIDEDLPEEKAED
In words: Adenosine Receptor Binding--A1 Receptor Affinity (RBA1), [3H]-CHA, rat whole brain minus cerebellum and brainstem membranes. Set-up: species or system rat (male Long-Evans). As to conditions: 1.0 nM [3H]-CHA, pH 7.7, 25° C., one hour, read-out: RBA-1 (IC50, adenosine A1 receptor affinity). The method, then:
Whole brain minus cerebellum and brainstem from male Long-Evans rats (150-200 g) is homogenized in 30 volumes of ice-cold 0.05 M Tris-HCl buffer pH 7.7 using a Brinkman Polytron PT-10, (setting number 6 for 20 seconds) and centrifuged for ten minutes at 20,000×g (Sorvall RC-2), 4° C. The supernatant is discarded, and the pellet is resuspended and centrifuged as before. The pellet is resuspended in 20 ml Tris-HCl buffer containing two International Units/ml of adenosine deaminase (Sigma type III from calf intestinal mucosa), incubated at 37° C. for 30 minutes, then subsequently at 0° C. for ten minutes. The homogenate is again centrifuged, and the final pellet is resuspended in ice-cold 0.05 M Tris-HCl buffer pH 7.7 to a concentration of 20 mg/ml original wet tissue weight and used immediately. […] Incubation volume was 2 ml. […] The filters are rinsed three times with 5 ml of ice-cold 0.05 M Tris-HCl buffer pH 7.7. The radio-labeled ligand retained on the filter is measured by liquid scintillation spectrophotometry after shaking the filters for one hour or longer on a mechanical shaker in 10 ml of Beckman Ready-Solv HP scintillation cocktail. Nonspecific binding is defined as the binding which occurs in the presence of 1 mM theophylline. […] The Scatchard plot is calculated by linear regression of the line obtained by plotting the amount of radioligand bound (pmoles/gram of tissue) versus [formula] Since the amount of radioligand bound is a small fraction of the total amount added, free radioligand is defined as the concentration of (nM) of radioligand added to the incubation mixture. The Hill coefficient is calculated by linear regression of the line obtained by plotting the log of the bound radioligand vs the log of the [formula] The maximal number of binding sites (Bmax) is calculated from the Scatchard plot.

Assay [2] addresses T2, adenosine A2 receptor (Rattus norvegicus, UniProt P30543).
T2 construct: Brains are thawed and then kept on ice while the striata are dissected out; tissue Pel-Freez (Rogers, Arkansas); host or cells: rat striatum, membranes
In words: Adenosine Receptor Binding--A2 Receptor Affinity (RBA2), [3H]NECA, rat striatal membranes. Set-up: species or system rat (Sprague-Dawley; Long-Evans hooded). As to conditions: 4 nM [3H]NECA, 50 nM N6-cyclopentyladenosine, 25° C., 60 min, read-out: RBA-2 (IC50, adenosine A2 receptor affinity). On the procedure: Brains from 200-500 g mixed sex Sprague-Dawley rats are purchased from Pel-Freez (Rogers, Arkansas). Fresh brains from male Long-Evans hooded rats (Blue Spruce Farms, Altamont, NY) give essentially identical results. Brains are thawed and then kept on ice while the striata are dissected out. Striata are disrupted in 10 vol of ice-cold 50 mM Tris.HCl (pH 7.7 at 25° C., pH 8.26 at 5° C.) (Tris) for 30 seconds in a Polytron PT-10 (Brinkman) at setting 5. The suspension is centrifuged at 50,000 xg for ten minutes, the supernatant discarded, the pellet resuspended in 10 vol ice-cold Tris as above, recentrifuged, resuspended at 1 g/5 ml, and stored in plastic vials at -70° C. (stable for at least six months). When needed, tissue is thawed at room temperature, disrupted in a Polytron, and kept on ice until used.
All incubations are for 60 minutes at 25° C. in 12×75 mm glass tubes containing 1 ml Tris with 5 mg original tissue weight of rat weight of rat striatal membranes, 4 nM [^3 H]-N-ethyl adenosine-5'-carboxamide ([^3 H]NECA), 50 nM N6-cyclopentyladenosine (to eliminate A1 receptor binding), 10 mM MgCl2, 0.1 units/ml of adenosine deaminase and 1% dimethylsulfoxide. N6-Cyclopentyladenosine is dissolved at 10 mM in 0.02 N HCl and diluted in Tris. Stock solutions and dilutions of N6-cyclopentyladenosine can be stored at -20° C. for several months. Test compounds are dissolved at 10 mM in dimethylsulfoxide on the same day as the experiment, and diluted in dimethylsulfoxide to 100× the final incubation concentration. […] [^3 H]NECA is diluted to 40 nM in Tris. The membrane suspension (5 mg/0.79 ml) contained sufficient MgCl2 and adenosine deaminase to give 10 mM and 0.1 units/ml, respectively, final concentration in the incubation. […] After all additions, the rack of tubes is vortexed, and the tubes are then incubated for 60 min at 25° C. in a shaking water bath. The rack of tubes is vortexed an additional time halfway through the incubation.
Incubations are terminated by filtration through 2.4 cm GF/B filters under reduced pressure. Each tube is filtered as follows: the contents of the tube are poured on the filter, 4 ml of ice-cold Tris are added to the tube and the contents poured onto the filter, and the filter is washed twice with 4 ml of ice-cold Tris. The filtration is complete in about twelve seconds. Filters are put in scintillation vials, 8 ml of Formula 947 scintillation fluid added, and the vials left overnight, shaken, and counted in a liquid scintillation counter at 40% efficiency.
Nonspecific binding is defined as binding in the presence of 100 μM N6-cyclopentyladenosine, and specific binding is defined as total binding minus nonspecific binding. The IC50 is calculated by weighted nonlinear least squares curve-fitting to the mass-action equation. [formula] where
Weighting factors are calculated under the assumption that the standard deviation was proportional to the predicted value of Y. Nonspecific binding is treated as a very large (infinite) concentration of drug in the computer analysis.

T2 sequence (P30543 whole entry): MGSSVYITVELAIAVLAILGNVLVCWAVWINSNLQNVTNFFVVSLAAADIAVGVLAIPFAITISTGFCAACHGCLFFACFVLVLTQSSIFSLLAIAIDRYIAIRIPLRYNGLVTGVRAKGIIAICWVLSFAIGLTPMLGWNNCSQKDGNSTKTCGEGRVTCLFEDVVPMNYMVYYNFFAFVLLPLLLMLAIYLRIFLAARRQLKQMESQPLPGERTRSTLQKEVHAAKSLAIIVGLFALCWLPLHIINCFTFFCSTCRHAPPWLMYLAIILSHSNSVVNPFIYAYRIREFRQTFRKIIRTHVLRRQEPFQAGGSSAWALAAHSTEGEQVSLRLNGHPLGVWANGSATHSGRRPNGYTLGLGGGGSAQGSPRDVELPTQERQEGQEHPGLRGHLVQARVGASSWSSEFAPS

One may read the IC50 as the concentration that inhibits the measured activity by half. Take `CCc1nnc2c(N[C@@H]3C[C@H]4CC[C@@H]3C4)nc3ccccc3n12` (relative stereo) [Example 9, Exo-N-bicyclo[2.2.1]hept-2-yl-1-ethyl[1,2,4]triazolo [4,3-a]quinoxalin-4-amine]: the IC50 in assay [1] came out at 0.074 µM; in assay [2], 8.69 µM.
For `c1ccc2c(c1)nc(NC1CCCC1)c1nncn12` [Example 1, N-Cyclopentyl[1,2,4]triazolo[4,3-a]quinoxalin-4-amine] the same measures were 0.331 µM and 7.77 µM.
For `Cc1nnc2c(NC3CCCC3)nc3ccccc3n12` [Example 2, N-cyclopentyl-1-methyl[1,2,4]triazolo[4,3-a]quinoxalin-4-amine] the same measures were 0.071 µM and 6.13 µM.
On to `CCc1nnc2c(NC3CCCC3)nc3ccccc3n12` [Example 3, N-Cyclopentyl-1-ethyl[1,2,4]triazolo[4,3-a]quinoxalin-4-amine], for which the concentration for half-maximal inhibition (IC50) worked out at 0.0497 µM in assay [1] and 2.51 µM in assay [2].
The corresponding values for `CCCc1nnc2c(NC3CCCC3)nc3ccccc3n12` [Example 4, N-Cyclopentyl-1-propyl[1,2,4]triazolo[4,3-a]quinoxalin-4-amine] are 0.068 µM and 5.08 µM.
For `CCCCc1nnc2c(NC3CCCC3)nc3ccccc3n12` [Example 5, 1-Butyl-N-cyclopentyl[1,2,4]triazolo[4,3-a]quinoxalin-4-amine] the same measures were 0.101 µM and over 100 µM.
Regarding `CCc1nnc2c(NC3CC3)nc3ccccc3n12` [Example 6, N-Cyclopropyl-1-ethyl[1,2,4]triazolo[4,3-a]quinoxalin-4-amine], the concentration for half-maximal inhibition (IC50) in assay [1] was determined as 0.487 µM; in assay [2] it was 6.63 µM.
For `CCc1nnc2c(NC3CCC3)nc3ccccc3n12` [Example 7, N-Cyclobutyl-1-ethyl[1,2,4]triazolo[4,3-a]quinoxalin-4-amine] the same measures were 0.109 µM and 2.32 µM.
Regarding `CCc1nnc2c(NC3CCCCC3)nc3ccccc3n12` [Example 8, N-Cyclohexyl-1-ethyl[1,2,4]triazolo[4,3-a]quinoxalin-4-amine], the half-inhibitory concentration (IC50) in assay [1] turned out to be 0.146 µM; in assay [2], 5.88 µM.
For `CCc1nnc2c(NC[C@H](C)O)nc3ccccc3n12` [Example 10, (S)-1-[(1-ethyl[1,2,4]triazolo[4,3-a]quinoxalin-4-yl)amino]-2-propanol], the concentration for half-maximal inhibition (IC50) in assay [1] amounted to 0.554 µM; in assay [2], 40.7 µM.
The corresponding values for `CCc1nnc2c(Nc3ccccc3)nc3ccccc3n12` [Example 11, 1-Ethyl-N-phenyl[1,2,4]triazolo[4,3-a]quinoxalin-4-amine] are 0.982 µM and 20 µM.
For `FC(F)(F)c1nnc2c(NC3CCCC3)nc3ccccc3n12` [Example 13, N-Cyclopentyl-1-(trifluoromethyl)[1,2,4]triazolo [4,3-a]quinoxalin-4-amine] the same measures were 0.0125 µM and 2.08 µM.
